The text below walks through data of the RepoRT retention time repository (doi:10.1016/j.jchromb.2020.122105).

Holding throughout (conditions): stereoisomer not certain
A short description of series [1]: RP, Waters CORTECS T3, 100 × 2.1 mm, 2.7 µm, 0.3 mL/min, estimated dead time 0.73 min; A: water + 0.1% formic acid, pH 3; B: methanol + 0.1% formic acid, pH 3; gradient (min/%B) 0/0 5/0 25/100 30/100 30.1/0 35/0.
Series [2] can be described thus: RP, Waters CORTECS T3, 100 × 2.1 mm, 2.7 µm, 0.2 mL/min, estimated dead time 1.1 min; A: water + 0.1% formic acid, pH 3; B: methanol + 0.1% formic acid, pH 3; gradient (min/%B) 0/0 1/0 6/5 30/100 35/100 35.1/0 40/0.
The nature of series [3]: RP, Waters CORTECS T3, 100 × 2.1 mm, 2.7 µm, 0.15 mL/min, estimated dead time 1.5 min; A: water + 0.1% formic acid, pH 3; B: methanol + 0.1% formic acid, pH 3; gradient (min/%B) 0/0 1/0 6/5 30/100 35/100 35.1/0 40/0.
The nature of series [4]: RP, Waters CORTECS T3, 100 × 2.1 mm, 2.7 µm, 0.25 mL/min, estimated dead time 0.88 min; A: water + 0.1% formic acid, pH 3; B: methanol + 0.1% formic acid, pH 3; gradient (min/%B) 0/0 1/0 6/5 30/100 35/100 35.1/0 40/0.
A short description of series [5]: RP, Thermo Scientific Hypercarb, 150 × 2.1 mm, 5 µm, 0.1 mL/min, estimated dead time 3.3 min; A: water + 0.1% formic acid, pH 3; B: methanol + 0.1% formic acid, pH 3; gradient (min/%B) 0/5 5/5 20/100 35/100 35.1/5 45/5.
Series [6] can be described thus: RP, Waters ACQUITY UPLC BEH C18, 100 × 2.1 mm, 1.7 µm, 0.1 mL/min, estimated dead time 2.2 min; A: water + 0.1% formic acid, pH 3; B: methanol + 0.1% formic acid, pH 3; gradient (min/%B) 0/5 5/5 25/100 30/100 30.1/5 35/5.
Series [7] can be described thus: RP, Waters CORTECS T3, 100 × 2.1 mm, 2.7 µm, 0.2 mL/min, estimated dead time 1.1 min; A: water + 0.045% formic acid + 0.11% ammonium hydroxide, pH 7; B: methanol; gradient (min/%B) 0/5 5/5 25/95 25.1/100 35/100 35.1/5 45/5.
Series [8] in a line: RP, Waters ACQUITY UPLC BEH C18, 100 × 2.1 mm, 1.7 µm, 0.1 mL/min, estimated dead time 2.2 min; A: water + 0.1% formic acid, pH 3; B: methanol + 0.1% formic acid, pH 3; gradient (min/%B) 0/5 5/5 25/95 25.1/100 35/100 35.1/5 45/5.
Series [9] in a line: RP, Waters ACQUITY UPLC BEH C18, 100 × 2.1 mm, 1.7 µm, 0.1 mL/min, estimated dead time 2.2 min; A: water + 0.045% formic acid + 0.11% ammonium hydroxide, pH 7; B: methanol; gradient (min/%B) 0/5 5/5 25/95 25.1/100 35/100 35.1/5 45/5.
Series [10] can be described thus: RP, Waters ACQUITY UPLC BEH C18, 100 × 2.1 mm, 1.7 µm, 0.2 mL/min, estimated dead time 1.1 min; A: water + 0.025% formic acid + 20 mM ammonium acetate + 0.055% ammonium hydroxide, pH 7; B: methanol; gradient (min/%B) 0/5 5/5 25/100 30/100 30.1/5 35/5.
Series [11] can be described thus: RP, Waters CORTECS T3, 100 × 2.1 mm, 2.7 µm, 0.3 mL/min, estimated dead time 0.73 min; A: water + 0.1% formic acid, pH 3; B: methanol + 0.1% formic acid, pH 3; gradient (min/%B) 0/0 5/0 25/100 30/100 30.1/0 35/0. This is another data set of the same source.
Series [12] in a line: RP, Waters CORTECS T3, 100 × 2.1 mm, 2.7 µm, 0.2 mL/min, estimated dead time 1.1 min; A: water + 0.1% formic acid, pH 3; B: methanol + 0.1% formic acid, pH 3; gradient (min/%B) 0/0 1/0 6/5 30/100 35/100 35.1/0 40/0. The source holds these as a separate data set.
The nature of series [13]: RP, Waters CORTECS T3, 100 × 2.1 mm, 2.7 µm, 0.3 mL/min, estimated dead time 0.73 min; A: water + 0.1% formic acid, pH 3; B: methanol + 0.1% formic acid, pH 3; gradient (min/%B) 0/0 1/0 6/5 30/100 35/100 35.1/0 40/0.
Experiment in series [14]: as above
This is another data set of the same source.

Series [15] can be described thus: RP, Waters CORTECS T3, 100 × 2.1 mm, 2.7 µm, 0.2 mL/min, estimated dead time 1.1 min; A: water + 0.1% formic acid, pH 3; B: methanol + 0.1% formic acid, pH 3; gradient (min/%B) 0/5 5/5 25/95 25.1/100 35/100 35.1/5 45/5.
Series [16] in a line: RP, Waters CORTECS T3, 100 × 2.1 mm, 2.7 µm, 0.3 mL/min, estimated dead time 0.73 min; A: water + 0.1% formic acid, pH 3; B: methanol + 0.1% formic acid, pH 3; gradient (min/%B) 0/5 5/5 25/95 25.1/100 35/100 35.1/5 45/5.
Series [17] is described as follows: RP, Waters ACQUITY UPLC BEH C18, 100 × 2.1 mm, 1.7 µm, 0.2 mL/min, estimated dead time 1.1 min; A: water + 0.1% formic acid, pH 3; B: methanol + 0.1% formic acid, pH 3; gradient (min/%B) 0/5 5/5 25/100 30/100 30.1/5 35/5.
Series [18] can be described thus: RP, Waters CORTECS T3, 100 × 2.1 mm, 2.7 µm, 0.25 mL/min, estimated dead time 0.88 min; A: water + 0.1% formic acid, pH 3; B: methanol + 0.1% formic acid, pH 3; gradient (min/%B) 0/5 5/5 25/95 25.1/100 35/100 35.1/5 45/5.
Series [19] in a line: RP, Waters ACQUITY UPLC BEH C18, 100 × 2.1 mm, 1.7 µm, 0.1 mL/min, estimated dead time 2.2 min; A: water + 0.1% formic acid, pH 3; B: methanol + 0.1% formic acid, pH 3; gradient (min/%B) 0/5 5/5 25/95 25.1/100 35/100 35.1/5 45/5. This is another data set of the same source.
Experiment in series [20]: as above
The source holds these as a separate data set.

A short description of series [21]: RP, Waters ACQUITY UPLC BEH C18, 100 × 2.1 mm, 1.7 µm, 0.2 mL/min, estimated dead time 1.1 min; A: water + 0.025% formic acid + 20 mM ammonium acetate + 0.055% ammonium hydroxide, pH 7; B: methanol; gradient (min/%B) 0/5 5/5 25/100 30/100 30.1/5 35/5. The source holds these as a separate data set.
Series [22] is described as follows: HILIC, Merck SeQuant ZIC-HILIC, 150 × 2.1 mm, 5 µm, 0.75 mL/min, estimated dead time 0.44 min; A: water + 0.1% acetic acid + 10 mM ammonium acetate, pH 4; B: 5% water + 95% acetonitrile + 0.1% acetic acid + 10 mM ammonium acetate, pH 4; gradient (min/%B) 0/95 5/95 20/57 25/57 30/95 40/95.
Series [23] is described as follows: RP, Waters CORTECS T3, 100 × 2.1 mm, 2.7 µm, 0.3 mL/min, estimated dead time 0.73 min; A: water + 0.1% formic acid, pH 3; B: methanol + 0.1% formic acid, pH 3; gradient (min/%B) 0/5 5/5 25/100 30/100 30.1/5 35/5.
Series [24] can be described thus: RP, Waters CORTECS T3, 100 × 2.1 mm, 2.7 µm, 0.1 mL/min, estimated dead time 2.2 min; A: water + 0.1% formic acid, pH 3; B: methanol + 0.1% formic acid, pH 3; gradient (min/%B) 0/0 1/0 6/5 30/100 35/100 35.1/0 40/0.
The nature of series [25]: RP, Waters CORTECS T3, 100 × 2.1 mm, 2.7 µm, 0.1 mL/min, estimated dead time 2.2 min; A: water + 0.1% formic acid, pH 3; B: methanol + 0.1% formic acid, pH 3; gradient (min/%B) 0/5 5/5 25/95 25.1/100 35/100 35.1/5 45/5.

Regarding `CN1CCC[C@H]1c1cccnc1` [(S)-NICOTINE], the LC retention time in [1] was 0.89 min; in series [2] it was 1.34 min; in [3], 1.78 min; in [4], 1.09 min; in series [5], 4.86 min; in series [6], 2.74 min. For the same compound, the LC retention time is 11.7 min in [7], 2.66 min in [8], 16.1 min in series [9] and 11.2 min in [10].
As to `Nc1ncnc2c1ncn2C1CC(O)C(COP(=O)(O)O)O1` (configuration not stated) [DAMP], the LC retention time was 0.89 min in [11]; 1.34 min in series [2]; 1.35 min in series [12]; 1.78 min in series [3]; 0.92 min in series [13]; 0.92 min in series [14]. Also, the LC retention time is 1.09 min in series [4]; 2.67 min in series [15]; 0.9 min in [16]; 1.38 min in series [17]; 1.08 min in [18]; 2.74 min in series [6]. For the same compound, the LC retention time in series [19] was 2.7 min; in series [20], 2.72 min; in series [21], 1.36 min; in series [22], 12.9 min.
Consider `Nc1nc2c(ncn2C2OC(COP(=O)(O)O)C(O)C2O)c(=O)[nH]1` (configuration not stated) [GUANOSINE 5'-MONOPHOSPHATE], for which the LC retention time in series [11] was 0.89 min; in [12] it was 1.35 min; in series [13], 0.92 min; in series [4] it was 1.09 min; in [15] it was 2.67 min; in series [16], 0.9 min. Further, the LC retention time in series [17] was 1.79 min; in series [18], 1.08 min; in series [20] it was 2.84 min.
In the case of `O=C([O-])Cc1c[nH]c2ccccc12` [INDOLE-3-ACETATE], the LC retention time was 12.9 min in series [23]; 13.8 min in [1]; 16.4 min in series [2]; 14.7 min in [24]; 17.9 min in [3]; 14.8 min in [14]. The LC retention time is 15.5 min in series [4]; 18.2 min in series [25]; 13.1 min in [16]; 18.2 min in series [6]; 18.6 min in [8]; 11.3 min in [9].
As to `NCCc1c[nH]c2ccc(O)cc12` [SEROTONIN], the LC retention time is 14.4 min in [5]; 2.74 min in series [6]; 10.7 min in series [7]; 2.66 min in series [8]; 13.9 min in [9].
For `NC(Cc1cc(I)c(Oc2cc(I)c(O)c(I)c2)c(I)c1)C(=O)O` (configuration not stated) [THYROXINE], the LC retention time in [23] is 18.5 min; in series [1], 18.9 min; in series [2], 22.8 min; in series [24] it was 20.3 min; in [3], 23.9 min; in [14], 21.6 min. Further, the LC retention time in [4] is 22.1 min; in series [16] it was 19.1 min; in [6] it was 22.7 min; in series [8], 23.5 min.
